Experimental data from article PMC8037182, “Solvothermal Synthesis of Multiple Dihydropyrimidinones at a Time as Inhibitors of Eg5” (Molecules, 2021).

Experiments:
[1] = tested on: Caco-2 cell line; assay: Cytotoxicity MTS assay, Caco-2 cell line; assay type: cell-based; settings: for OD490 Mean / OD490 Well 1 / OD490 Well 2 / OD490 Well 3: Caco-2 cell line
Summary of the method: (§1)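 MTS read-out (absorbance 490 nm after 2 h reagent at 37 °C) following 24 h compound exposure at 0.5–100 µM final, 0.025% DMSO as blank. Plated at 1000 cells/well and pre-incubated 24 h; IC50 derived by non-linear regression of viability against concentration, from three independent duplicate runs.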

[2] = tested on: T24 cell line; assay: Cytotoxicity MTS assay, T24 cell line; assay type: cell-based; settings: for OD490 Mean / OD490 Well 1 / OD490 Well 2 / OD490 Well 3: T24 cell line, first assay;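 for OD490 Mean: blank control wells received 0.025% DMSO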;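 for OD490 Well 1: blank control wells received 0.025% DMSO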;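 for OD490 Well 2: blank control wells received 0.025% DMSO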;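 for OD490 Well 3: blank control wells received 0.025% DMSO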
Summary of the method: as §1

## COC(=O)c1[nH]c(C2NC(=S)NC(C)=C2C(=O)c2ccccc2)c(C(=O)OC)c1C (stereo not shown) [D14]
[1]; 0.5μM, first assay
  OD490 Mean: 0.5996
  OD490 Well 1: 0.5553
  OD490 Well 2: 0.5560
  OD490 Well 3: 0.6875
[1]; 0.5μM, second assay
  OD490 Mean: 0.6725
  OD490 Well 1: 0.6506
  OD490 Well 2: 0.6879
  OD490 Well 3: 0.6791
[1]; 0.5μM, third assay
  OD490 Mean: 0.6452
  OD490 Well 1: 0.6120
  OD490 Well 2: 0.6285
  OD490 Well 3: 0.6952
[1]; 1μM, second assay
  OD490 Mean: 0.6718
  OD490 Well 1: 0.6251
  OD490 Well 2: 0.6916
  OD490 Well 3: 0.6987
[1]; 1μM, third assay
  OD490 Mean: 0.6246
  OD490 Well 1: 0.6324
  OD490 Well 2: 0.6014
  OD490 Well 3: 0.6401
[1]; 10μM, first assay
  OD490 Mean: 0.6223
  OD490 Well 1: 0.6178
  OD490 Well 2: 0.6082
  OD490 Well 3: 0.6409
[1]; 10μM, second assay
  OD490 Mean: 0.6139
  OD490 Well 1: 0.6136
  OD490 Well 2: 0.6117
  OD490 Well 3: 0.6164
[1]; 10μM, third assay
  OD490 Mean: 0.6241
  OD490 Well 1: 0.5987
  OD490 Well 2: 0.6312
  OD490 Well 3: 0.6424
[1]; 25μM, first assay
  OD490 Mean: 0.5939
  OD490 Well 1: 0.5396
  OD490 Well 2: 0.5578
  OD490 Well 3: 0.6844
[1]; 25μM, second assay
  OD490 Mean: 0.5279
  OD490 Well 1: 0.4988
  OD490 Well 2: 0.5384
  OD490 Well 3: 0.5466
[1]; 25μM, third assay
  OD490 Mean: 0.5570
  OD490 Well 1: 0.5324
  OD490 Well 2: 0.5784
  OD490 Well 3: 0.5601
[1]; 50μM, first assay
  OD490 Mean: 0.5128
  OD490 Well 1: 0.5310
  OD490 Well 2: 0.5192
  OD490 Well 3: 0.4883
[1]; 50μM, second assay
  OD490 Mean: 0.5200
  OD490 Well 1: 0.5229
  OD490 Well 2: 0.564
  OD490 Well 3: 0.4732
[1]; 50μM, third assay
  OD490 Mean: 0.4713
  OD490 Well 1: 0.4985
  OD490 Well 2: 0.4532
  OD490 Well 3: 0.4621
[1]; 100μM, first assay
  OD490 Mean: 0.4642
  OD490 Well 1: 0.4537
  OD490 Well 2: 0.4965
  OD490 Well 3: 0.4424
[1]; 100μM, second assay
  OD490 Mean: 0.4817
  OD490 Well 1: 0.4326
  OD490 Well 2: 0.5246
  OD490 Well 3: 0.4878
[1]; 100μM, third assay
  OD490 Mean: 0.4653
  OD490 Well 1: 0.4632
  OD490 Well 2: 0.4397
  OD490 Well 3: 0.4930
[1]; MTS assay, 24 h exposure
  IC50: 103 µM
[2]; MTS assay, 24 h exposure
  IC50: > 150 µM
[2]; 0.5μM
  OD490 Mean: 1.1342
  OD490 Well 1: 1.0996
  OD490 Well 2: 1.1541
  OD490 Well 3: 1.1489
[2]; 1μM
  OD490 Mean: 1.3301
  OD490 Well 1: 1.2266
  OD490 Well 2: 1.4478
  OD490 Well 3: 1.3160
[2]; 10μM
  OD490 Mean: 1.2661
  OD490 Well 1: 1.2502
  OD490 Well 2: 1.2630
  OD490 Well 3: 1.2850
[2]; 25μM
  OD490 Mean: 1.2456
  OD490 Well 1: 1.2555
  OD490 Well 2: 1.2167
  OD490 Well 3: 1.2646
[2]; 50μM
  OD490 Mean: 1.2309
  OD490 Well 1: 1.2932
  OD490 Well 2: 1.1700
  OD490 Well 3: 1.2295
[2]; 100μM
  OD490 Mean: 1.4227
  OD490 Well 1: 1.3732
  OD490 Well 2: 1.4320
  OD490 Well 3: 1.4629
